Measurements taken from ChEMBL document CHEMBL5150016, “Inhibiting Sodium Taurocholate Cotransporting Polypeptide in HBV-Related Diseases: From Biological Function to Therapeutic Potential” (J Med Chem, 2022).
Converted amounts (≈) assume the structure as drawn. Blank lines part the entries; values can stand above or below the molecule they belong to.

Key:
[1] = biological target: T1, Hepatic sodium/bile acid cotransporter (Homo sapiens, UniProt Q14973); experiment: Inhibition of HBV subgenotype D3 [3H]-myr-preS1 (2 to 48 residues) peptide binding to human NTCP in HEK293 cells preincubated for 5 mins followed by substrate addition and measured after 10 mins using by microplate scintillation counter analysis; assay type: cell-based
T1 sequence (Q14973 whole entry): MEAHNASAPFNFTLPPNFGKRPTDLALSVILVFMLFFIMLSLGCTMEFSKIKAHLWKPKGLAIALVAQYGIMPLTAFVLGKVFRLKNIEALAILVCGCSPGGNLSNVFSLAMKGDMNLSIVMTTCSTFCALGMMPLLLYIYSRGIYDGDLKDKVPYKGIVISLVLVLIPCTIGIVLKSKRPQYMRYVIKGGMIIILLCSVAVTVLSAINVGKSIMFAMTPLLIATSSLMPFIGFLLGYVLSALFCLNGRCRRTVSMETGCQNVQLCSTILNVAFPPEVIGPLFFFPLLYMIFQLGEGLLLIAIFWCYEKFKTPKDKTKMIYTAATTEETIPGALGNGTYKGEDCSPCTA

Hepatitis B virus [2] = experiment: Antiviral activity against HBV infected human HepG2-hNTCP cells assessed as reduction of HBV DNA level preincubated for 3 hrs followed by viral infection for 16 hrs further compound washout and measured 6 days post infection by qPCR analysis; assay type: functional, organism-based
Hepatitis B virus [3] = experiment: Antiviral activity against HBV infected HepG2 2.2.15 cells assessed as reduction in HBeAg level at 50 microg/ml for 48 hrs by ELISA; assay type: functional; parameters: scale not given: the % may be the effect or the level left; conditions: dose 50 µg/ml
Hepatitis B virus [4] = experiment: Antiviral activity against HBV infected HepG2 2.2.15 cells assessed as reduction in HBsAg level at 50 microg/ml for 48 hrs by ELISA; assay type: functional, organism-based; parameters: Activity: scale not given: the % may be the effect or the level left; conditions: for Activity: dose 50 µg/ml, time 48 hrs
Hepatitis B virus [5] = experiment: Antiviral activity against HBV infected in human HepG2-hNTCP cells assessed as reduction in intracellular HBV RNA incubated for 16 hrs followed by compound washout and measured after 6 days post infection by ELISA; assay type: functional, organism-based
Hepatitis B virus [6] = experiment: Antiviral activity against HBV infected HepG2 cells assessed as reduction in HBeAg level; assay type: functional, organism-based; conditions: HepG2 2.2.15
Hepatitis B virus [7] = experiment: Antiviral activity against HBV infected HepG2 cells assessed as reduction in HBsAg level; assay type: functional, organism-based; conditions: HepG2 2.2.15
[8] = biological target: T1, Hepatic sodium/bile acid cotransporter; experiment: Inhibition of TAMRA-labeled preS1-peptide binding to human NTCP in HepG2-hNTCP cells incubated for 30 mins by […]; assay type: cell-based
[9] = biological target: T1, Hepatic sodium/bile acid cotransporter; experiment: Inhibition of human NTCP mediated TCA uptake in HepG2-hNTCP cells incubated for 15 mins using [3H] taurocholic acid as substrate by liquid scintillation counter analysis; assay type: cell-based
Hepatitis delta virus [10] = experiment: Antiviral activity against hepatitis D virus infected in human HepG2-hNTCP cells assessed as reduction in viral replication preincubated for 5 mins followed by viral infection measured after 6 hrs post infection by RT-qPCR analysis; assay type: functional, organism-based
HepG2 = experiment: Antiproliferative activity against human HEpG2 cells; assay type: functional, cell-based
Hepatitis B virus [11] = experiment: Antiviral activity against HBV infected HepG2 2.2.15 cells assessed as reduction in HBsAg level and measured after 9 days by ELISA; assay type: functional, organism-based; conditions: HepG2 2.2.15, 216 h
Hepatitis B virus [12] = experiment: Antiviral activity against HBV infected HepG2 2.2.15 cells assessed as reduction in HBeAg level and measured after 9 days by ELISA; assay type: functional, organism-based; conditions: HepG2 2.2.15, 216 h
[13] = biological target: T1, Hepatic sodium/bile acid cotransporter; experiment: Inhibition of preS1-peptide binding to human HA-tagged NTCP in U2OS expresseing NTCP in incubated for 24 hrs using Myrcludex B as substrate by competitive binding assay; assay type: cell-based
[14] = biological target: T1, Hepatic sodium/bile acid cotransporter; experiment: Inhibition of human NTCP mediated TCA uptake in U2OS expresseing HA-tagged NTCP cells preincubated for 10 mins followed by substrate addition and measured after 2 mins using [3H]-taurocholate as substrate by liquid scintillation counter analysis; assay type: cell-based
Hepatitis B virus [15] = experiment: Antiviral activity against HBV infected in human HepG2-hNTCP cells assessed as reduction in HBsAg level preincubated for 2 hrs followed by viral infection for 16 hrs further compound washout and measured after 12 days post infection by ELISA; assay type: functional, organism-based
Hepatitis B virus [16] = experiment: (§1) Antiviral activity against HBV infected in human DMSO differentiated imHC cells assessed as reduction in intracellular HBV DNA at 30 uM preincubated for 2 hrs followed by viral infection for 18 hrs followed by compound washout and further treated with fresh compound for 24 hrs and measured on day 7 post infection by real-time qPCR analysis; assay type: functional; parameters: scale not given: the % may be the effect or the level left; conditions: time 44 hrs
[17] = biological target: T1, Hepatic sodium/bile acid cotransporter; experiment: Binding affinity to human NTCP assessed as dissociation constant by isothermal titration calorimetry
Hepatitis B virus [18] = experiment: as §1, with “viral load” for “intracellular HBV DNA”; assay type: functional; parameters: scale not given: the % may be the effect or the level left; conditions: time 44 hrs
Hepatitis B virus [19] = experiment: Antiviral activity against HBV infected human DMSO differentiated HuS-E/2 cells assessed as reduction of HBV core protein level incubated for 20 hrs by Western blot analysis; assay type: functional, organism-based; conditions: HuS-E/2, 20 h
Hepatitis B virus [20] = experiment: Antiviral activity against HBV infected human DMSO differentiated HuS-E/2 cells overexpressing NTCP assessed as assessed as inhibition of viral entry by measuring HBV mRNA level at 20 uM by qPCR analysis relative to control; assay type: functional
Hepatitis B virus [21] = experiment: Antiviral activity against HBV infected human DMSO differentiated HuS-E/2 cells overexpressing NTCP assessed as assessed as inhibition of viral entry by measuring HBV mRNA level by qPCR analysis; assay type: functional, organism-based
[22] = biological target: T1, Hepatic sodium/bile acid cotransporter; experiment: Binding affinity to NTCP (unknown origin)
Hepatitis delta virus [23] = experiment: Antiviral activity against hepatitis D virus infected in human Huh-7 cells overexpressing NTCP assessed as reduction in intracellular HDV RNA for 20 hrs followed by viral infection further compound washout and measured after 6 days post infection by RT-qPCR analysis; assay type: functional, organism-based

Structure (SMILES): C=C(C)[C@@H]1CC[C@]2(/C=N/O)CC[C@]3(C)[C@H](CC[C@@H]4[C@@]5(C)CC[C@H](O)C(C)(C)[C@@H]5CC[C@]43C)[C@@H]12
- IC50 [1]: 11 µM

Structure (SMILES): Cc1cc(OCCCS(C)(=O)=O)cc(C)c1-c1cccc(COc2ccc3c(c2)OC[C@H]3CC(=O)O)c1
- IC50 (Hepatitis B virus [2]): 30 µM

Structure (SMILES): C[C@H]1O[C@H](Oc2c(-c3cc(O)c(O)c(O)c3)oc3cc(O)cc(O)c3c2=O)[C@@H](O)[C@@H](O)[C@@H]1O
- Activity (Hepatitis B virus [3]): 35%
- Activity (Hepatitis B virus [4]): 44%

Structure (SMILES): O=C1N=C(O)S/C1=C\c1ccc(OCc2ccc(-c3ccccc3)cc2)cc1
- IC50 (Hepatitis B virus [5]): 3.8 µM

Structure (SMILES): C=C(C)[C@@H]1CC[C@]2(CO)CC[C@]3(C)[C@H](CC[C@@H]4[C@@]5(C)CC[C@H](OC(=O)/C=C/c6ccc(O)c(O)c6)C(C)(C)[C@@H]5CC[C@]43C)[C@@H]12
- IC50 [1]: 6 µM

Structure (SMILES): CCCCCCc1c(C)c2ccc(OCC(=O)NC(Cc3ccccc3)C(=O)O)cc2oc1=O (stereo not given)
- IC50 [8]: 145 µM
- IC50 [9]: 12.5 µM

Structure (SMILES): Cc1c(Cc2ccccc2)c(=O)oc2cc(OCC(=O)NC(CSCc3ccccc3)C(=O)O)ccc12 (stereo not given)
- IC50 [8]: 150 µM
- IC50 [9]: 13.3 µM

Structure (SMILES): O=C1NC(=O)/C(=C/c2ccc(-c3ccc(-c4cccc5ccccc45)cc3)cc2)S1
- IC50 (Hepatitis B virus [5]): 1.7 µM

Structure (SMILES): C=C(CO)[C@@H]1CC[C@]2(COC(C)=O)CC[C@]3(C)[C@H](CC[C@@H]4[C@@]5(C)CC[C@H](OC(C)=O)C(C)(C)[C@@H]5CC[C@]43C)[C@@H]12
- IC50 [1]: 8 µM

Structure (SMILES): Cc1c(OCC(=O)NC(CSCc2ccccc2)C(=O)O)ccc2c3c(c(=O)oc12)CCCC3 (stereo not given)
- IC50 [8]: 123 µM
- IC50 [9]: 16.2 µM

Structure (SMILES): C=C(C)[C@@H]1CC[C@]2(COC(C)=O)CC[C@]3(C)[C@H](CC[C@@H]4[C@@]5(C)CC[C@H](OC(C)=O)C(C)(C)[C@@H]5CC[C@]43C)[C@@H]12 [BETULIN DIACETATE]
- IC50 [1]: 199 µM

Structure (SMILES): CC1(COc2ccc(CC3SC(=O)NC3=O)cc2)CCCCC1 (stereo not given) [CIGLITAZONE]
- IC50 (Hepatitis B virus [15]): 5 µM

Structure (SMILES): O=C(O[C@@H]1Cc2c(O)cc(O)cc2O[C@@H]1c1cc(O)c(O)c(O)c1)c1cc(O)c(O)c(O)c1 [EPIGALOCATECHIN GALLATE]
- IC50 (Hepatitis B virus [19]): 10 µM

Structure (SMILES): CC(C)[C@@H](C)/C=C/[C@@H](C)[C@H]1CC[C@@H]2[C@]1(C)CC[C@H]1[C@]23C=C[C@]2(C[C@@H](O)CC[C@]12C)OO3 [ERGOSTEROL PEROXIDE]
- inhibition at 20 µM (Hepatitis B virus [20]): 75%
- EC50 (Hepatitis B virus [21]): 9.64 µM

Structure (SMILES): O=C1[C@H](CC[C@H](O)c2ccc(F)cc2)[C@@H](c2ccc(O)cc2)N1c1ccc(F)cc1 [EZETIMIBE]
- Ki [22]: 25 µM
- EC50 (Hepatitis delta virus [23]): 10.4 µM

Structure (SMILES): CCCCC1=NC2(CCCC2)C(=O)N1Cc1ccc(-c2ccccc2-c2nnn[nH]2)cc1 [IRBESARTAN]
- EC50 (Hepatitis delta virus [23]): 9.4 µM

Structure (SMILES): O=c1c(O)c(-c2ccc(O)c(O)c2)oc2cc(O)cc(O)c12 [QUERCETIN]
- Activity (Hepatitis B virus [3]): 62%
- Activity (Hepatitis B virus [4]): 60%

Structure (SMILES): CC(C)c1nc(CN(C)C(=O)N[C@H](C(=O)N[C@@H](Cc2ccccc2)C[C@H](O)[C@H](Cc2ccccc2)NC(=O)OCc2cncs2)C(C)C)cs1 [RITONAVIR]
- EC50 (Hepatitis delta virus [23]): 9.1 µM

Structure (SMILES): CN(CCOc1ccc(CC2SC(=O)NC2=O)cc1)c1ccccn1 (stereo not given) [ROSIGLITAZONE]
- IC50 (Hepatitis B virus [4]; Hepatitis B virus, HepG2 2.2.15, 48 h): 5.1 µM

Structure (SMILES): COc1cc(C(=O)NS(=O)(=O)c2ccccc2C)ccc1Cc1cn(C)c2ccc(NC(=O)OC3CCCC3)cc12 [ZAFIRLUKAST]
- IC50 [13]: > 1 µM

Continued, in another order:

- IC50 (Hepatitis B virus [6]): 15 ng/mL (≈ 0.0344 µM)
- IC50 (Hepatitis B virus [7]): 3.95 ng/mL (≈ 0.00906 µM)
Structure (SMILES): Cc1ccc(C(=O)NCC(=O)N/N=C/c2ccccc2OCc2ccccc2Cl)cc1

- IC50 [1]: 16.5 µM
- IC50 (Hepatitis delta virus [10]): 70 µM
Structure (SMILES): COc1ccc([C@H](O)[C@H](c2ccccn2)[C@@H](Nc2ccccn2)c2ccccc2)cc1

- IC50 [1]: 16 µM
- IC50 (Hepatitis delta virus [10]): 15 µM
Structure (SMILES): O=Cc1cccc([C@@H]([C@H](Nc2ccccn2)c2ccccc2)[C@@H](O)c2ccccc2)n1

- IC50 [1]: 6.5 µM
- IC50 (Hepatitis delta virus [10]): 70 µM
Structure (SMILES): O[C@H](c1ccc([C@@H](O)[C@@H](c2ccccn2)[C@H](Nc2ccccn2)c2ccccc2)cc1)[C@@H](c1ccccn1)[C@H](Nc1ccccn1)c1ccccc1

- IC50 [8]: 238 µM
- IC50 [9]: 17.8 µM
Structure (SMILES): CCCCCCc1cc2ccc(OCC(=O)NC(CCSC)C(=O)O)cc2oc1=O (stereo not given)

- IC50 (HepG2): 7.36 µM
- IC50 (Hepatitis B virus [6]): 7.64 ng/mL (≈ 0.0134 µM)
- IC50 (Hepatitis B virus [7]): 3.24 ng/mL (≈ 0.00568 µM)
Structure (SMILES): CC(C)(C)OC(=O)N1CCN(CC(=O)NCc2cccc(CNS(=O)(=O)c3ccc(C(F)(F)F)cc3)c2)CC1

- IC50 (Hepatitis B virus [5]): 5.2 µM
Structure (SMILES): O=C1NC(=O)C(Cc2ccc(OCc3ccc(-c4ccccc4)cc3)cc2)S1 (stereo not given)

- IC50 (Hepatitis B virus [11]): 7.5 µM
- IC50 (Hepatitis B virus [12]): 3.7 µM
Structure (SMILES): CN1CCCC(n2nc(Cc3ccc(Cl)cc3)c3ccccc3c2=O)CC1 (stereo not given) [AZELASTINE]

- IC50 [13]: > 1 µM
- IC50 [14]: 7.1 µM
Structure (SMILES): COc1cc(-c2ccc(/N=N/c3ccc4c(S(=O)(=O)O)cc(S(=O)(=O)O)c(N)c4c3O)c(OC)c2)ccc1/N=N/c1ccc2c(S(=O)(=O)O)cc(S(=O)(=O)O)c(N)c2c1O [CHICAGO SKY BLUE]

- Kd [17]: 64.3 µM
Structure (SMILES): COc1cc(/C=C/C(=O)CC(=O)/C=C/c2ccc(O)c(OC)c2)ccc1O [CURCUMIN]
- Activity (Hepatitis B virus [16]): 67%
- Activity (Hepatitis B virus [18]): 55%

- IC50 [13]: > 1 µM
Structure (SMILES): O=C(O)c1cc(/N=N/c2ccc(S(=O)(=O)Nc3ccccn3)cc2)ccc1O [SULFASALAZINE]

- IC50 (Hepatitis B virus [15]): 10 µM
Structure (SMILES): Cc1c(C)c2c(c(C)c1O)CCC(C)(COc1ccc(CC3SC(=O)NC3=O)cc1)O2 (stereo not given) [TROGLITAZONE]
